According to paper PMC6752049 (Insect biochemistry and molecular biology, 2019):

How the values were obtained:
Experiment in all cases: two-electrode voltage clamp, Xenopus oocytes
Assay type in all cases: cell-based
AgamOR8 = molecular target: T1, AgamOR8 (Anopheles gambiae, UniProt Q7PUT5); settings: 0.1 uM to 0.1 mM; -80 mV, pH 7.4; inward current (agonist)
T1 sequence (Q7PUT5 1-399): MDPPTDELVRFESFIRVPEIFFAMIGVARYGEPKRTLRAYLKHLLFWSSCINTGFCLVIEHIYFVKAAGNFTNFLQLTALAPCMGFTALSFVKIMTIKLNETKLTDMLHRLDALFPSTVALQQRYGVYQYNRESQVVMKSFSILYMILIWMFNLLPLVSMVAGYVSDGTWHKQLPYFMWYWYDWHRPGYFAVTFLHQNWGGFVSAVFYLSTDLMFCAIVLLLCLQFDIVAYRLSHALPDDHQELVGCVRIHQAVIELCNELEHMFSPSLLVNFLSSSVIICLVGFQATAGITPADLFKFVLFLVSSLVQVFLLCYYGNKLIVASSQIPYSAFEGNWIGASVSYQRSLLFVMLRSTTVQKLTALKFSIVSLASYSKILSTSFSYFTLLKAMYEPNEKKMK
T1 sequence (Q7QCC7 1-478 partner): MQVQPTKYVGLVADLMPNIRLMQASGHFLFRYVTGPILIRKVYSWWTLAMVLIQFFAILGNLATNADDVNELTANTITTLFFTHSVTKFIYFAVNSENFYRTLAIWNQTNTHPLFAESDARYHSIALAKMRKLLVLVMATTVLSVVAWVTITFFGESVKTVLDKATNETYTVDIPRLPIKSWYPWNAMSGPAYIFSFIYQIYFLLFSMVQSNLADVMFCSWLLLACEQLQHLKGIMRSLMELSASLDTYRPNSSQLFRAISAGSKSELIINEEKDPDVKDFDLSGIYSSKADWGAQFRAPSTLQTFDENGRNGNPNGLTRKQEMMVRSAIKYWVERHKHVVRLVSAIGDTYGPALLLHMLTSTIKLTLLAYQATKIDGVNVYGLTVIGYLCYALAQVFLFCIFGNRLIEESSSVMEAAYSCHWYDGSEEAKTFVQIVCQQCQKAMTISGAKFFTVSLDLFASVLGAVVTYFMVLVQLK

AgamOR10/AgamOrco = molecular target: T2, AgamOR10/AgamOrco (Anopheles gambiae, UniProt B5U0U7); settings: 0.01-1 mM; -80 mV, pH 7.4; outward (inhibitory) current
T2 sequence (B5U0U7 1-375): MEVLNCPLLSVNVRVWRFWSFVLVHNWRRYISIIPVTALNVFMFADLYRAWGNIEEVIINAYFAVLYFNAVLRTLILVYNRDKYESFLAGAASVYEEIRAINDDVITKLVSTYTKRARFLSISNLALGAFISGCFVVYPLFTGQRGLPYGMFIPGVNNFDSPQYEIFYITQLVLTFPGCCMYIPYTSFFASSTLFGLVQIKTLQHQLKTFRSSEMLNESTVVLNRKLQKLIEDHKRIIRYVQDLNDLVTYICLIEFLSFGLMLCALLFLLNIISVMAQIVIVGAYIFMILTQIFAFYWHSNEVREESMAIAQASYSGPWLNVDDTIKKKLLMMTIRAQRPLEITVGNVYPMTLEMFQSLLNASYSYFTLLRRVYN
T2 sequence (Q7QCC7 1-478 partner): T1 sequence (Q7QCC7 1-478 partner)

AgamOR40 = molecular target: T3, AgamOR40 (Anopheles gambiae, UniProt Q7PR01); settings: 0.01-1 mM; -80 mV, pH 7.4; inward current (agonist)
T3 sequence (Q7PR01 1-454): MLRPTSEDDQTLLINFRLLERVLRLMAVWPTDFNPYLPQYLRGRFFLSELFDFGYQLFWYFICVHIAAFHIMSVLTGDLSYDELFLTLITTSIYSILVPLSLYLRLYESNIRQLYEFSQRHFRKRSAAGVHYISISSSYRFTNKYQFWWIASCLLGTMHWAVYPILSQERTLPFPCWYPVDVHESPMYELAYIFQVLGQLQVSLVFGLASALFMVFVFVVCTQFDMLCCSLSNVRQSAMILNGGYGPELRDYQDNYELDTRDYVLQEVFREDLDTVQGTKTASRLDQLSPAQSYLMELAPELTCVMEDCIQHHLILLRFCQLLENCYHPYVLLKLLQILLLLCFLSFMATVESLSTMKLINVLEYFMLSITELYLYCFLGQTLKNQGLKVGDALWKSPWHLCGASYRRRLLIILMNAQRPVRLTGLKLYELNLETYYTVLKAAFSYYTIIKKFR
T3 sequence (Q7QCC7 1-478 partner): T1 sequence (Q7QCC7 1-478 partner)

Row | Structure (SMILES) | two-electrode voltage clamp, Xenopus oocytes (AgamOR40) | also measured
1 | C=CC(O)CCCCC (stereo not shown) [1-octen-3-ol] |  | two-electrode voltage clamp, Xenopus oocytes (AgamOR8): generated robust, dose-dependent inward currents in response to 1-octen-3-ol
2 | CC/C=C\C[C@H]1C(=O)CC[C@@H]1CC(=O)OC [BDR-4, methyl jasmonate] |  | two-electrode voltage clamp, Xenopus oocytes (AgamOR10/AgamOrco): The strongest outward currents were obtained with BDR-4 (methyl jasmonate)
3 | CCN(CC)C(=O)c1cccc(C)c1 [DEET] | generated dose-dependent inward currents in response to DEET as well as to its best ligand, fenchone | 
4 | CC12CCC(C1)C(C)(C)C2=O (stereo not shown) [fenchone] | generated dose-dependent inward currents in response to DEET as well as to its best ligand, fenchone | 
